Test results as given in patent publication US20020128320A1, “Method of administering calcium citrate” (UniServices Ltd., priority 2001, published 2002).
“Also recorded” adds a separate entry of the source. Where two headings read alike, the source gives them in different places.

How the values were obtained:
[1] = 193 subjects; cited from earlier work
[2] = 6 weeks; 56 subjects; cited from earlier work
[3] = 13 men, cited from earlier work
[4] = Randomized placebo-controlled trial of calcium citrate: body weight; type: in vivo, normal postmenopausal women
Procedure: A randomized controlled trial of calcium supplementation in 223 normal postmenopausal women aged 55 years or older. Women receiving therapy for osteoporosis were ineligible, as were those with any other major ongoing disease, including serum creatine greater than 0.2 mmol/L, untreated hypo- or hyperthyroidism, liver disease, serum 25-hydroxyvitamin D less than 10 μg/L, malignancy or metabolic bone disease. None of the subjects had been regular users of hormone replacement therapy, anabolic steroids, glucocorticoids or bisphosphonates in the previous 1 year. Lumbar spine bone density (Lunar Expert, Madison, Wis.) was not below the age-appropriate normal range. […]
266 subjects were assessed for eligibility for the sub-study, and 223 entered the study, of which 111 women were randomized to calcium and 112 to placebo. […]
Treatments were allocated randomly using a minimization algorithm balancing for current thiazide use, age and the occurrence of fractures resulting from minimal trauma after the age of 40 years. […] Calcium intake and physical activity were assessed using validated questionnaires (Angus et al., 1989; Wilson et al., 1986). Compliance was assessed by tablet counts.
Data were analyzed on an intention-to-treat basis, using a fixed effects mixed models approach to repeated measures using the MIXED procedure of SAS (SAS Institute, Cary, N.C.). […]

[5] = Randomized placebo-controlled trial of calcium citrate: fasting serum lipids; type: in vivo, normal postmenopausal women
Procedure: A randomized controlled trial of calcium supplementation in 223 normal postmenopausal women aged 55 years or older. Women receiving therapy for osteoporosis were ineligible, as were those with any other major ongoing disease, including serum creatine greater than 0.2 mmol/L, untreated hypo- or hyperthyroidism, liver disease, serum 25-hydroxyvitamin D less than 10 μg/L, malignancy or metabolic bone disease. None of the subjects had been regular users of hormone replacement therapy, anabolic steroids, glucocorticoids or bisphosphonates in the previous 1 year. Lumbar spine bone density (Lunar Expert, Madison, Wis.) was not below the age-appropriate normal range. In the present sub-study there was the further requirement that subjects were not receiving therapy for hyperlipidemia.
266 subjects were assessed for eligibility for the sub-study, and 223 entered the study, of which 111 women were randomized to calcium and 112 to placebo. 20 women in the calcium group discontinued study medication as did 26 in the placebo group. […] The study was approved by the local ethics committee, and each subject gave written, informed consent. There were not significant differences between groups.
Treatments were allocated randomly using a minimization algorithm balancing for current thiazide use, age and the occurrence of fractures resulting from minimal trauma after the age of 40 years. Subjects received 1 gram of elemental calcium daily as the citrate (Citracal, Mission Pharmacal, San Antonio Tex.) or identical placebo. They were asked to take two tablets (each containing 200 mg elemental calcium) before breakfast and three tablets in the evening. Calcium intake and physical activity were assessed using validated questionnaires (Angus et al., 1989; Wilson et al., 1986). Compliance was assessed by tablet counts.
Fasting total cholesterol, high-density lipoprotein cholesterol and triglycerides were measured in serum at baseline, 2 months, 6 months, and one year, using a Roche-Hitachi 747 autoanalyzer (Mannherim, Germany). The cholesterol assay used cholesterol oxidase, high-density lipoprotein measurement was by a direct non-precipitation method using PEG-modified enzymes (cholesterol oxidase), and triglycerides were assayed using a glycerol kinase/oxidase method after initial hydrolysis using lipoprotein lipase. Low-density lipoprotein was calculated using the Friedewald formula:
LDL=TC−HDL−(0.45×triglyceride)
Data were analyzed on an intention-to-treat basis, using a fixed effects mixed models approach to repeated measures using the MIXED procedure of SAS (SAS Institute, Cary, N.C.). Significant main and interaction effects were explained using the method of Tukey. In complimentary analyses, the change from baseline for each continuous normal dependant variable was compared between treatment and placebo arms using Student's t-test for independent groups. A 5% significance level was maintained throughout these analyses.

[6] = intention-to-treat analysis, 12 months, 1 g elemental calcium daily

O=C([O-])[O-].[Ca+2] [calcium carbonate]
changes in total cholesterol, high-density lipoprotein level, and blood pressure [1]: statistically insignificant changes
change in total cholesterol [2]: statistically insignificant decrease

calcium citrate malate
increase in saturated fat excretion ([3]; food and tablets): 7%
low-density lipoprotein levels decrease ([3]; food and tablets): 11%
reduction in plasma cholesterol ([3]; food and tablets): 6%
high-density lipoprotein levels change ([3]; increased in some subjects and decreased in others): insignificant

O=C([O-])CC(O)(CC(=O)[O-])C(=O)[O-].O=C([O-])CC(O)(CC(=O)[O-])C(=O)[O-].[Ca+2].[Ca+2].[Ca+2] [calcium citrate]
body weight decrease (mean ±SE) ([4]; intention-to-treat analysis, 1 g elemental calcium daily): 289 ± 193 g
between-groups effect on body weight ([4]; versus placebo (P=0.54)): no between-groups effect on body weight
high-density lipoprotein/low-density lipoprotein ratio increase (summary statement) ([5]; daily dose about 1 gram elemental calcium): ~20%
predicted reduction of cardiovascular event rates ([5]; extrapolated from lipid effects by comparison with statin trial data): 20-30%
high-density lipoprotein/low-density lipoprotein ratio increase [5, 6]: 17.7%
total cholesterol fall (non-significant) [5, 6]: 3.7%
high-density lipoprotein increase above baseline ([5]; intention-to-treat analysis, 12 months, 1 g elemental calcium daily, oral): 7.3%
low-density lipoprotein decline ([5]; intention-to-treat analysis, 12 months, 1 g elemental calcium daily, LDL calculated by Friedewald formula): 7.8%
ratio of total cholesterol/high-density lipoprotein decline ([5]; intention-to-treat analysis, one year, 1 g elemental calcium daily): 9.3%
treatment effect on triglycerides ([5]; intention-to-treat analysis, versus placebo (P=0.48)): no significant treatment effect
change in high-density lipoprotein cholesterol versus placebo ([5]; protocol analysis excluding statin/fibrate users, FIG. 1A, P=0.05): increase in high-density lipoprotein; also recorded: significant treatment effects
change in low-density lipoprotein cholesterol versus placebo ([5]; protocol analysis excluding statin/fibrate users, FIG. 1B, P=0.04): declined; also recorded: significant treatment effects
change in total cholesterol ([5]; protocol analysis excluding statin/fibrate users, FIG. 2A): did not change significantly
treatment effect on triglycerides ([5]; protocol analysis excluding statin/fibrate users, FIG. 3): no significant treatment effect
total cholesterol/high-density lipoprotein ratio decrease ([5]; protocol analysis excluding subjects who commenced a statin or fibrate): 9.6%
high-density lipoprotein/low-density lipoprotein ratio increase ([5]; protocol analysis excluding subjects who commenced a statin or fibrate, FIG. 2B): 17%
